ChEMBL document CHEMBL3244052, “Conformational analogues of dopamine. Synthesis and pharmacological activity of (E)- and (Z)-2-(3,4-dihydroxyphenyl)cyclopropylamine hydrochlorides” (J Med Chem, 1979)
The source made the active and inactive calls. The rule behind the calls is not given here.

Assays:
Canis familiaris [1] = assay: Cardiac stimulant activity in iv dosed dog assessed as dose producing 50% increase in contractile force; format: functional, Canis lupus familiaris
Canis familiaris [2] = assay: Cardiac stimulant activity in iv dosed dog assessed as increase in heart rate; format: functional, Canis lupus familiaris
[3] = Agonist activity at alpha-adrenergic receptor in rabbit thoracic aorta assessed as […] contraction; format: tissue-based, Oryctolagus cuniculus
Canis familiaris [4] = assay: Dopaminergic activity in mongrel dog assessed as renal vasodilation up to 4.96 x 10^-6 M administered to renal artery; format: functional, organism-based; details: Canis lupus familiaris

For `CC(C)NCC(O)c1ccc(O)c(O)c1.Cl` (centres undefined) [ISOPROTERENOL HYDROCHLORIDE], which Activity (Canis familiaris [1]) is on record?
Its Activity is 0.014 ×10⁻⁸ mol/kg.

And the Activity (Canis familiaris [2])?
Its Activity is 16 bpm.

Which results are given for `Cl.NCCc1ccc(O)c(O)c1` [DOPAMINE HYDROCHLORIDE]?
EC50 [3]: 102 ×10⁻⁷ mol; Activity (Canis familiaris [1]): 4.8 ×10⁻⁸ mol/kg; Activity (Canis familiaris [2]): 5 bpm

Which ED50 (Canis familiaris [4]) does the source give for `Cl.N[C@@H]1C[C@@H]1c1ccc(O)c(O)c1` (racemic) here?
Its ED50 is “inactive”.

What about the EC50 [3] of the same compound?
The EC50 was 457 ×10⁻⁷ mol.

What about the Activity (Canis familiaris [1]) of the same compound?
Its Activity is 312.3 ×10⁻⁸ mol/kg.

What about the Activity (Canis familiaris [2]) of the same compound?
Its Activity is 32 bpm.

With `CNC[C@H](O)c1cccc(O)c1.Cl` [PHENYLEPHRINE HYDROCHLORIDE] as the compound, how does the EC50 [3] read?
Its EC50 is 2.3 ×10⁻⁷ mol.

Which results are given for `Cl.N[C@@H]1C[C@H]1c1ccc(O)c(O)c1` (racemic)?
ED50 (Canis familiaris [4]): inactive; EC50 [3]: 94 ×10⁻⁷ mol; Activity (Canis familiaris [1]): 19.5 ×10⁻⁸ mol/kg; Activity (Canis familiaris [2]): -2 bpm
